# Measurements taken from ChEMBL document CHEMBL3243932, “Potential antiinflammatory compounds. 3. Compounds derived from acenaphthene and indan” (J Med Chem, 1979).
# Activity calls are given as the source filed them. The calls are words filed in the database; no cut-off is given here.
# Columns and labels:
# Rattus norvegicus [1] = test: Antiinflammatory activity in rat assessed as reduction of carrageenan-induced foot edema at 100 mg/kg, po administered as two doses; format: functional
# [2] = Acute toxicity in po dosed mouse; format: organism-based; settings: in vivo
# Rattus norvegicus [3] = test: Antiinflammatory activity against rat adjuvant arthritis model assessed as reduction of swelling in non-injected foot at 50 mg/kg, po administered for 16 days; format: functional; settings: 384 h
# Rattus norvegicus [4] = test: Antiinflammatory activity against rat adjuvant arthritis model assessed as reduction of swelling in non-injected foot at 100 mg/kg, po administered for 16 days; format: functional; settings: 384 h
# Rattus norvegicus [5] = test: Antiinflammatory activity against rat adjuvant arthritis model assessed as reduction of swelling in non-injected foot at 33 mg/kg, po administered for 16 days; format: functional; settings: 384 h
# Rattus norvegicus [6] = test: Antiinflammatory activity in rat assessed as reduction of carrageenan-induced foot edema at 50 mg/kg, po administered as two doses; format: functional
# Rattus norvegicus [7] = test: Antiinflammatory activity in po dosed rat assessed as reduction of carrageenan-induced foot edema administered as two doses; format: functional, organism-based
# Rattus norvegicus [8] = test: Antiinflammatory activity in rat assessed as reduction of carrageenan-induced foot edema at 25 mg/kg, po administered as two doses; format: functional
# Rattus norvegicus [9] = test: Antiinflammatory activity against rat adjuvant arthritis model assessed as reduction of swelling in non-injected foot at 1 mg/kg, po administered for 16 days; format: functional; settings: 384 h
SMILES,inhibition in vivo at 100 mg/kg (Rattus norvegicus [1]),LD50 [2],inhibition in vivo at 100 mg/kg (Rattus norvegicus [4]),also measured
O=C([O-])Cc1ccc2c(c1)CCC2C1CCCCC1.[Na+] (configuration not stated),28%,1200 mg/kg,–,–
CC1CCc2cc(-c3ccccc3)ccc21 (configuration not stated),35%,1600 mg/kg,–,inhibition in vivo at 50 mg/kg (Rattus norvegicus [3]): 32%
O=C(O)Cc1ccc2c(c1)C(=O)CC2,0%,1600 mg/kg,–,–
O=C(O)Cc1ccc2c(c1)C(=O)/C(=C/c1ccccc1)C2,26%,1600 mg/kg,25%,–
CC(C(=O)O)c1ccc2c(c1)C(=O)/C(=C/c1ccc(Cl)cc1)C2 (configuration not stated),–,–,53%,–
O=C(O)Cc1ccc2c(c1)C(=O)/C(=C/c1ccc(Cl)cc1)C2,0%,1600 mg/kg,43%,–
O=C(O)Cc1ccc2c3c(cccc13)C(c1ccccc1)C2 (configuration not stated),53%,400 mg/kg,0%,–
CCCCC1C(=O)N(c2ccccc2)N(c2ccccc2)C1=O [PHENYLBUTAZONE],–,–,–,inhibition in vivo at 50 mg/kg (Rattus norvegicus [3]): 50%; inhibition in vivo at 33 mg/kg (Rattus norvegicus [5]): 42%; inhibition in vivo at 50 mg/kg (Rattus norvegicus [6]): 30%
O=C(O)CCc1ccc(CC(=O)O)cc1,–,–,–,inhibition (Rattus norvegicus [7]): inactive
C/C=C/C(=O)c1ccc(-c2ccccc2)cc1,–,–,–,inhibition (Rattus norvegicus [7]): inactive
O=C(O)Cc1ccc2c(c1)C(=O)CC2C1CCCCC1 (configuration not stated),8%,1200 mg/kg,–,–
O=C1CC(c2ccccc2)c2ccccc21 (configuration not stated),48%,1600 mg/kg,36%,–
O=C(O)CCC1CC(c2ccccc2)c2ccccc21 (configuration not stated),–,300 mg/kg,–,inhibition in vivo at 25 mg/kg (Rattus norvegicus [8]): 0%
O=C(O)CC1CC(c2ccccc2)c2ccccc21 (configuration not stated),0%,1600 mg/kg,–,–
O=C(O)Cc1ccc(C2CC(=O)c3ccccc32)cc1 (configuration not stated),36%,1600 mg/kg,52%,–
CC(C(=O)O)c1ccc2c3c(cccc13)C(c1ccccc1)C2 (configuration not stated),44%,1600 mg/kg,–,inhibition in vivo at 50 mg/kg (Rattus norvegicus [3]): 50%
O=C(O)Cc1ccc(C(CC(=O)O)c2ccccc2)cc1 (configuration not stated),–,–,–,inhibition (Rattus norvegicus [7]): inactive
CC1CC(=O)c2cc(-c3ccccc3)ccc21 (configuration not stated),7%,1600 mg/kg,–,–
COc1ccc2c(c1)c(CC(=O)O)c(C)n2C(=O)c1ccc(Cl)cc1 [INDOMETHACIN],–,–,–,inhibition in vivo at 1 mg/kg (Rattus norvegicus [9]): 57%
C[C@]12CCC(=O)C=C1CC[C@@H]1[C@@H]2[C@@H](O)C[C@@]2(C)[C@H]1CC[C@]2(O)C(=O)CO [HYDROCORTISONE],–,–,–,inhibition in vivo at 50 mg/kg (Rattus norvegicus [6]): 51%
